Experimental data taken from US12678412B2, “Substituted tolans for the modulation of microbial colonization” (BioMendics, LLC, priority 2017, dated 2026).

How the values were obtained:
Acinetobacter baumannii = assay: Colony forming assay, 24 h plate assay, Acinetobacter baumannii; assay type: cell-based; conditions: Transcutol formulation, FIG. 11
Experimental: Proliferating cultures of Acinetobacter baumannii were used in a colony forming assay. Frozen stock cultures of Acinetobacter baumannii were thawed and grown overnight in tryptic soy broth (TSB) with shaking at 37° C. The overnight culture (0.5-1.0 mL) was added to 100 mL TSB and grown at 37° C. with shaking and monitored for an optical density of 0.20-0.38 to obtain a final inoculum suspension of approximately 10^8 CFU/mL.
BM3103 was dissolved into Transcutol (diethylene glycol monoethyl ether) at 2.5% w/v and vortexed until dissolved. This concentration was then serial diluted to achieve the remaining concentrations tested. Before plating, 100 μL of the final inoculum (10^8 CFU/mL) was mixed with 20 μL TSB broth and 80 μL of BM3103 doses or vehicle. Tobramycin, 600 μg/mL, served as the positive control. The final plating concentrations for BM3103 were 1, 0.5, 0.25, and 0.1% w/v (44 mM, 22 mM, 11 mM, 4 mM) BM3103. Vehicle and BM3103 formulations contained matching final concentration of 40% v/v Transcutol.
The Transcutol formulations combined with the inoculum were plated onto TSB agar plates. The plates were grown at 37° C. for 24 h, imaged, and the bacteria colonies were counted. The experiment was done four times at each concentration level described above. Colony counts for each treatment were tabulated and the Log of the colony forming units/mL (Log CFU/mL) were determined. The mean and the standard error of the mean were calculated for each treatment.

S. typhimurium TA100 = assay: Dose range finding colony forming assay, strain TA100 with metabolic activation; assay type: cell-based
Experimental: A series of dose range finding assays were performed with five bacterial strains, S. typhimurium TA97a, TA98, TA100, TA1535, and E. coli WP2 uvrA pKM101, with and without metabolic activation at three plates per dose. The following doses, along with positive and negative controls, were tested: 5000, 2500, 1250, 500, 250, 125, 50, 20, 10, 5, 2, 1, and 0.2 μg/plate. The plates were evaluated for toxicity (a decrease in plate counts with increasing dose and/or a visible thinning of the background lawn) and for precipitation of the test article. Metabolic activation was included in some samples by adding phenobarbital/benzoflavone-induced rat liver S9 fractions with cofactors (S9 mix). Prior to use, freshly thawed aliquots of rat liver S9 were mixed with a sterile cofactor mix. The S9 mix contains a 10% liver S9 concentration and was refrigerated or stored on ice until used. When testing with metabolic activation, the S9 mix was used in the assay tube in place of phosphate buffer.
Dosing formulations were prepared to deliver all doses in a constant volume of 0.1 mL. The highest dose was prepared from test article weighed to the nearest 0.1 mg and the remaining formulations were prepared as serial dilutions from the high dose stock formulation. Using a permanent marking pen or computer printed labels, assay plates were labeled with the project and study numbers and the date. Assay plates and tubes were labeled with a unique identifier, which was used to match the assay tubes with the properly identified minimal glucose agar plate.
The pre-incubation method was used to perform the assay. The assay mix consisted of 0.1 mL of the test article formulation or control article, 0.5 mL S9 mix or phosphate buffer, and 0.1 mL of bacterial culture. Assay tubes were incubated at 37±1° C. with gentle agitation for 20±1 minutes, then 2.0-2.5 mL top agar was added to the assay mix and the top agar/assay mix poured onto appropriately labeled minimal glucose agar plates. Once the top agar hardened, the plates were inverted and incubated at 37±1° C. for 48±2 hours. Plates were counted with the Sorcerer (v. 2.2)/Ames Study Manager (v. 1.2.4) system from Perceptive Instruments (Suffolk, UK). With this system, plate counts are automatically transferred from the plate imager (Sorcerer) to a Study Manager spreadsheet, and the data are stored in a secure manner on an Oracle database. Some plates were hand counted, e.g., if sample precipitate interferes with automatic counting or toxicity results in the formation of microcolonies, in which case, counts for these plates were entered into the spreadsheet manually. Plates were scored also with the extent of colonization by a post fix code.

## COc1ccc(C#Cc2ccc(O)cc2)cc1 [BM3103, 4-hydroxy-4′-methoxytolan]
Acinetobacter baumannii; 0.1%
  Reduction of Acinetobacter baumannii bacterial counts: no reduction
Acinetobacter baumannii; 0.25%
  Reduction of Acinetobacter baumannii bacterial counts: slight reduction
Acinetobacter baumannii; 0.5%
  Reduction of Acinetobacter baumannii bacterial counts: 4 fold
Acinetobacter baumannii; 1%
  Reduction of Acinetobacter baumannii bacterial counts: almost a complete reduction
S. typhimurium TA100; 0.2 μg/plate
  Colony forming units/plate: 78 colony forming units/plate
  Individual colony counts: 78
S. typhimurium TA100; 1 μg/plate
  Colony forming units/plate: 56.0 colony forming units/plate
  Individual colony counts: 56
S. typhimurium TA100; 2 μg/plate
  Colony forming units/plate: 36.0 colony forming units/plate
  Individual colony counts: 360
S. typhimurium TA100; 5 μg/plate
  Colony forming units/plate: 74.0 colony forming units/plate
  Individual colony counts: 74
S. typhimurium TA100; 10 μg/plate
  Colony forming units/plate: 38.0 colony forming units/plate
  Individual colony counts: 38
  Plate postfix code (individual colony counts): S T
S. typhimurium TA100; 20 μg/plate
  Colony forming units/plate: 54.0 colony forming units/plate
  Individual colony counts: 54
S. typhimurium TA100; 50 μg/plate
  Colony forming units/plate: 0.0 colony forming units/plate
  Individual colony counts: 0
S. typhimurium TA100; 125 μg/plate
  Colony forming units/plate: 0.0 colony forming units/plate
  Individual colony counts: 0
S. typhimurium TA100; 250 μg/plate
  Colony forming units/plate: 0.0 colony forming units/plate
  Individual colony counts: 0
S. typhimurium TA100; 500 μg/plate
  Colony forming units/plate: 0.0 colony forming units/plate
  Individual colony counts: 0
S. typhimurium TA100; 1250 μg/plate
  Colony forming units/plate: 0.0 colony forming units/plate
  Individual colony counts: 0
  Plate postfix code (individual colony counts): A P
S. typhimurium TA100; 2500 μg/plate
  Colony forming units/plate: 0.0 colony forming units/plate
  Individual colony counts: 0
  Plate postfix code (individual colony counts): A P
S. typhimurium TA100; 5000 μg/plate
  Colony forming units/plate: 0.0 colony forming units/plate
  Individual colony counts: 0
  Plate postfix code (individual colony counts): A P
